The values below come from patent publication US7563791B2, “Pyrrolotriazine derivatives useful for treating hyper-proliferative disorders and diseases associated with angiogenesis” (Bayer Pharmaceuticals Corporation, priority 2004, dated 2009).

The experiment deals with VEGF stimulated Phospho-ERK in HUVEC. Nature of the experiment: Growth factor stimulated p-ERK assay in HUVECs (VEGF stimulation, ERK1/2 Bioplex). It is filed as cell-based. Conditions: Homo sapiens, compound 2 hrs, then 50 ng/ml VEGF 10 min; for inhibition at 0.1 µM: @ 100 nM. As to the method: Growth Factor Stimulated p-ERK assay in HUVECs
Exponentially growing human endothelial HUVECs cells (human umbilical vein endothelial cells, cat# CC-2517, Cambrex, Walkersville, Md.) were seeded at twenty five thousand cells/well in 96 well plates in EBM-2 MV medium with growth factors (cat# CC-3202, Cambrex) and grown at 37° C. in 5% CO2. Sixteen hours post-plating, the cells were changed to serum-free medium (RPMI 1640 containing 0.1% BSA (bovine serum albumin) and compounds were added at different concentrations for 2 hrs, after which the cells were stimulated for 10 min with 50 ng/ml of either VEGF (vascular endothelial growth factor, Protein Sciences, Meriden, Conn.) or bFGF (basic fibroblast growth factor cat# PHG0026, Biosource International, Camarillo, Calif.). The rest of the assay was performed per manufacturer indications for the ERK½ Bioplex assay (cat#171-304004, Bio-Rad, Hercules, Calif.). After removing culture medium by aspiration, the cells were quickly rinsed with 100 μl of cell wash buffer A to stop treatment reaction. Eighty microliters of cell lysis buffer were then immediately added to each well of the 96 well plate which was put on ice. Cells in each well were lysed by pipetting up and down 5 times with a multi-channel pipet. The plate was then agitated on a microtiter plate shaker at 300 rpm for 20 min at 4° C. Cellular debris were pelleted by centrifugation at 4500 g for 15 min at 4° C. and the supernatant was collected. Forty five microliters of supernatant was diluted with an equal volume of Bio-Plex phosphoprotein assay Buffer B, The coupled and color coated beads were added into a 96 well filter plate, and the prepared lysates were added. The beads and lysate mixture was incubated at room temperature for 15-18 hrs. The following day, the plate was vacuum-filtered and then washed 3×. Twenty-five microliters of detection antibody solution were added to each well and the plate was then incubated for 30 min at room temperature. The plate was then vaccum-filtered and washed as described previously. Fifty microliters of streptavidin-PE solution was added to each well, the plate was incubated for 10 min at room temperature and then was then vaccum-filtered and washed as described above. One hundred twenty-five microliters of resuspension buffer was added to each well and data were acquired on the Luminex 100 instrument (Bio-Rad).

On to `CCOC(=O)c1cn2ncnc(N)c2c1-c1ccc(NC(=O)Nc2cc(C(F)(F)F)ccc2F)cc1` [Example 1, ethyl 4-amino-5-{4-[({[2-fluoro-5-(trifluoromethyl)phenyl]amino}carbonyl)amino]phenyl}pyrrolo[2,1-f][1,2,4]triazine-6-carboxylate], for which the inhibition (usually the drop in the measured response relative to a control, in per cent) at 0.1 µM was above 50%. In turn, `CCOC(=O)c1cn2ncnc(N)c2c1-c1ccc(NC(=O)Nc2ccccc2OC(F)(F)F)cc1` [Example 8, ethyl 4-amino-5-{4-[({[2-(trifluoromethoxy)phenyl]amino}carbonyl)amino]phenyl}pyrrolo[2,1-f][1,2,4]triazine-6-carboxylate] displayed an inhibition at 0.1 µM above 50%. `CCOC(=O)c1cn2ncnc(N)c2c1-c1ccc(NC(=O)Nc2cccc(OC(F)(F)F)c2)cc1` [Example 9, ethyl 4-amino-5-{4-[({[3-(trifluoromethoxy)phenyl]amino}carbonyl)amino]phenyl}pyrrolo[2,1-f][1,2,4]triazine-6-carboxylate]: the inhibition at 0.1 µM was above 50%. For the compound `CCOC(=O)c1cn2ncnc(N)c2c1-c1ccc(NC(=O)Nc2ccc(OC(F)(F)F)cc2)cc1` [Example 11, ethyl 4-amino-5-{4-[({[4-(trifluoromethoxy)phenyl]amino}carbonyl)amino]phenyl}pyrrolo[2,1-f][1,2,4]triazine-6-carboxylate], the inhibition at 0.1 µM was below 50% and the inhibition at 1 µM was above 50%. In turn, `CCOC(=O)c1cn2ncnc(N)c2c1-c1ccc(NC(=O)Nc2ccc3c(cnn3C)c2)cc1` [Example 12] had an inhibition at 0.1 µM above 50%. Take `CCOC(=O)c1cn2ncnc(N)c2c1-c1ccc(NC(=O)Nc2ccc3c(c2)OC(F)(F)O3)cc1` [Example 14, ethyl 4-amino-5-[4-({[(2,2-difluoro-1,3-benzodioxol-5-yl)amino]carbonyl}amino)phenyl]pyrrolo[2,1-f][1,2,4]triazine-6-carboxylate]: the inhibition at 0.1 µM is below 50%, the inhibition at 1 µM was below 50% and the inhibition at 10 µM is above 50%. On to `CCOC(=O)c1cn2ncnc(N)c2c1-c1ccc(NC(=O)Nc2ccc(Cl)c(Cl)c2)cc1` [Example 18, ethyl 4-amino-S-[4-({[(3,4-dichlorophenyl)amino]carbonyl}amino)phenyl]pyrrolo[2,1-f][1,2,4]triazine-6-carboxylate], for which the inhibition at 0.1 µM was below 50%, the inhibition at 1 µM is below 50% and the inhibition at 10 µM is above 50%. For `CCOC(=O)c1cn2ncnc(N)c2c1-c1ccc(NC(=O)Nc2ccc3c(c2)OC(F)(F)C(F)(F)O3)cc1` [Example 22, ethyl 4-amino-5-[4-({[(2,2,3,3-tetrafluoro-2,3-dihydro-1,4-benzodioxin-6-yl)amino]carbonyl}amino)phenyl]pyrrolo[2,1-f][1,2,4]triazine-6-carboxylate], the inhibition at 0.1 µM was below 50% and the inhibition at 1 µM is above 50%. For `CCOC(=O)c1cn2ncnc(N)c2c1-c1ccc(NC(=O)Nc2ccccc2)cc1` [Example 23, ethyl 4-amino-5-{4-[(anilinocarbonyl)amino]phenyl}pyrrolo[2,1-f][1,2,4]triazine-6-carboxylate], the inhibition at 0.1 µM was above 50%.

The compound `CCOC(=O)c1cn2ncnc(N)c2c1-c1ccc(NC(=O)Nc2ccccc2C(C)C)cc1` [Example 24, ethyl 4-amino-5-[4-({[(2-isopropylphenyl)amino]carbonyl}amino)phenyl]pyrrolo[2,1-f][1,2,4]triazine-6-carboxylate] returned an inhibition at 0.1 µM below 50% and an inhibition at 1 µM above 50%. For `CCOC(=O)c1cn2ncnc(N)c2c1-c1ccc(NC(=O)Nc2cc(C(F)(F)F)cc(C(F)(F)F)c2)cc1` [Example 26, ethyl 4-amino-5-{4-[({[3,5-bis(trifluoromethyl)phenyl]amino}carbonyl)amino]phenyl}pyrrolo[2,1-f][1,2,4]triazine-6-carboxylate] the same measures were below 50% and above 50%.

`CCOC(=O)c1cn2ncnc(N)c2c1-c1ccc(NC(=O)Nc2cc(C(F)(F)F)ccc2N2CCOCC2)cc1` [Example 27, ethyl 4-amino-5-{4-[({[2-morpholin-4-yl-5-(trifluoromethyl)phenyl]amino}carbonyl)amino]phenyl}pyrrolo[2,1-f][1,2,4]triazine-6-carboxylate] returned an inhibition at 0.1 µM above 50%.

On to `CCOC(=O)c1cn2ncnc(N)c2c1-c1ccc(NC(=O)Nc2cc(OC)ncn2)cc1` [Example 29, ethyl 4-amino-5-[4-({[(6-methoxypyrimidin-4-yl)amino]carbonyl}amino)phenyl]pyrrolo[2,1-f][1,2,4]triazine-6-carboxylate], for which the inhibition at 0.1 µM is below 50% and the inhibition at 1 µM was above 50%.

Compound `COCCNCc1cn2ncnc(N)c2c1-c1ccc(NC(=O)Nc2cc(C(F)(F)F)ccc2F)cc1` [Example 32, N-[4-(4-amino-6-{[(2-methoxyethyl)amino]methyl}pyrrolo[2,1-f][1,2,4]triazin-5-yl)phenyl]-N′-[2-fluoro-5-(trifluoromethyl)phenyl]urea] showed an inhibition at 0.1 µM above 50%. Turning to `CN(C)CCNCc1cn2ncnc(N)c2c1-c1ccc(NC(=O)Nc2cc(C(F)(F)F)ccc2F)cc1` [Example 37, N-{4-[4-amino-6-({[2-(dimethylamino)ethyl]amino}methyl)pyrrolo[2,1-f][1,2,4]triazin-5-yl]phenyl}-N′-[2-fluoro-5-(trifluoromethyl)phenyl]urea], the inhibition at 0.1 µM is below 50% and the inhibition at 1 µM was above 50%. For `Nc1ncnn2cc(CNCCC(F)(F)F)c(-c3ccc(NC(=O)Nc4cc(C(F)(F)F)ccc4F)cc3)c12` [Example 39, N-[4-(4-amino-6-{[(3,3,3-trifluoropropyl)amino]methyl}pyrrolo[2,1-f][1,2,4]triazin-5-yl)phenyl]-N′-[2-fluoro-5-(trifluoromethyl)phenyl]urea] the same measures were below 50% and above 50%. In the same order, the values of `COCCN1CCN(Cc2cn3ncnc(N)c3c2-c2ccc(NC(=O)Nc3cc(C(F)(F)F)ccc3F)cc2)CC1` [Example 41, N-[4-(4-amino-6-{[4-(2-methoxyethyl)piperazin-1-yl]methyl}pyrrolo[2,1-f][1,2,4]triazin-5-yl)phenyl]-N′-[2-fluoro-5-(trifluoromethyl)phenyl]urea] are below 50% and above 50%.

As for `Nc1ncnn2cc(CNc3cccnc3)c(-c3ccc(NC(=O)Nc4cc(C(F)(F)F)ccc4F)cc3)c12` [Example 47, N-(4-{4-amino-6-[(pyridin-3-ylamino)methyl]pyrrolo[2,1-f][1,2,4]triazin-5-yl}phenyl)-N′-[2-fluoro-5-(trifluoromethyl)phenyl]urea], the inhibition at 0.1 µM was below 50% and the inhibition at 1 µM was above 50%. Compound `CCOC(=O)c1cn2ncnc(N)c2c1-c1ccc(NC(=O)Nc2cc(C(C)(C)C)nn2C)cc1` [Example 49, ethyl 4-amino-5-[4-({[(3-tert-butyl-1-methyl-1H-pyrazol-5-yl)amino]carbonyl}amino)phenyl]pyrrolo[2,1-f][1,2,4]triazine-6-carboxylate] gave an inhibition at 0.1 µM above 50%. As for `Nc1ncnn2cc(C(=O)NCCCN3CCCC3)c(-c3ccc(NC(=O)Nc4cc(C(F)(F)F)ccc4F)cc3)c12` [Example 62, 4-amino-5-{4-[({[2-fluoro-5-(trifluoromethyl)phenyl]amino}carbonyl)amino]phenyl}-N-(3-pyrrolidin-1-ylpropyl)pyrrolo[2,1-f][1,2,4]triazine-6-carboxamide], the inhibition at 0.1 µM was below 50%, the inhibition at 1 µM was below 50% and the inhibition at 10 µM is above 50%. `Nc1ncnn2cc(CCCN3CCOCC3)c(-c3ccc(NC(=O)Nc4cc(C(F)(F)F)ccc4F)cc3)c12` [Example 66, N-{4-[4-amino-6-(3-morpholin-4-ylpropyl)pyrrolo[2,1-f][1,2,4]triazin-5-yl]phenyl}-N′-[2-fluoro-5-(trifluoromethyl)phenyl]urea] gave an inhibition at 0.1 µM below 50% and an inhibition at 1 µM above 50%. For `CC(C)(C)NC(=O)c1cn2ncnc(N)c2c1-c1ccc(NC(=O)Nc2cc(C(F)(F)F)ccc2F)cc1` [Example 75, 4-amino-N-(tert-butyl)-5-{4-[({[2-fluoro-5-(trifluoromethyl)phenyl]amino}carbonyl)amino]phenyl}pyrrolo[2,1-f][1,2,4]triazine-6-carboxamide] the same measures were below 50% and above 50%. The compound `Cc1cn2ncnc(N)c2c1-c1ccc(NC(=O)Nc2cc(C(F)(F)F)ccc2F)cc1` [Example 85, N-[4-(4-amino-6-methylpyrrolo[2,1-f][1,2,4]triazin-5-yl)phenyl]-N′-[2-fluoro-5-(trifluoromethyl)phenyl]urea] gave an inhibition at 0.1 µM below 50% and an inhibition at 1 µM above 50%.
